Our source for the Relative potency values is ChEMBL document CHEMBL1123316, “Synthesis and biological activity of substance P C-terminal hexapeptide analogues: structure-activity studies” (1986).

Where a SMILES comes first, the peptide text is derived from it. [ ]: non-standard residue; d: D form. Orn = NCCC[C@H](N)C(=O)O

Test [1] is filed under the species Cavia porcellus. The test can be described thus: In vitro potency as spasmogen relative to SP against guinea pig ileum.
For test [2], the species on record is Rattus norvegicus. The test can be described thus: In vitro potency as spasmogen relative to SP against rat colon muscularis mucosae.

`CSCC[C@H](NC(=O)[C@H](CC(C)C)NC(=O)CNC(=O)[C@H](Cc1ccccc1)NC(=O)[C@H](Cc1ccccc1)NC(=O)[C@@H](N)CCCN)C(N)=O` (H-[Orn]FFGLM-NH2): the Relative potency in test [1] is on record as 0.39; in test [2], 0.36.

For `CO[C@H](C)[C@H](N)C(=O)N[C@@H](Cc1ccccc1)C(=O)N[C@@H](Cc1ccccc1)C(=O)NCC(=O)N[C@@H](CC(C)C)C(=O)N[C@@H](CCSC)C(N)=O` (H-T(Me)FFGLM-NH2), the figures for the Relative potency in test [1] and in test [2] were 0.066 and 0.16, respectively.

As to H-QFFGLM-NH2, the Relative potency in test [1] worked out at 0.3; in test [2], 0.076.

Regarding H-VFFGLM-NH2, the Relative potency in test [1] was 0.067; in test [2], 0.15.

Turning to H-TFFGLM-NH2, the figures for the Relative potency in test [1] and in test [2] were 0.021 and 0.056, respectively.
